In the supplement of paper PMC11451515:

Columns and labels:
Conditions in all cases: 48 h
SEM cells [1] = test: cell viability relative to DMSO control; higher = less cytotoxic
In short: (§1)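 Leukemia cells (NOMO1 or SEM, 500 cells/well; P12-Ichikawa, 1000 cells/well) were seeded in 5 μl in 1536-well plates after at least four passages of adaptation to each medium. They received library compounds in DMSO by pin dosing, 11 threefold points from 47 μM to 0.79 nM. Luminescence with CellTiter-Glo One was read after 48 h at 37°C. Viability is stated per plate relative to DMSO wells, with cell-free wells as background.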

P12-Ichikawa [2] = test: as above
In short: as §1

NOMO1 [3] = test: AUC of viability dose-response curve (% viability x log10 dose units); higher = less sensitive
In short: (§2)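 Leukemia cells adapted to each medium (500 or 1000 cells/well, 1536-well plates) were exposed to library compounds in DMSO for 48 h at 37°C at 11 threefold doses, 47 μM to 0.79 nM. Luminescence by CellTiter-Glo One was normalised per plate to DMSO and cell-free wells, then fitted with a four-parameter log-logistic curve on log10 dose. Curves above full viability were scaled and quality-control failures removed before area under the curve was integrated by trapezoidal rule.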

SEM cells [4] = test: as above
In short: as §2

P12-Ichikawa [5] = test: as above
In short: as §2

NOMO1 [6] = test: cell viability relative to DMSO control; higher = less cytotoxic
In short: as §1

CC(C)c1cnn2c(NCc3ccccc3)cc(N[C@@H](CO)[C@H](O)CO)nc12
cell viability [%]
Conditions	P12-Ichikawa [2]	SEM cells [1]
HPLM + 10% dialyzed FBS, 0.000781 µM	121	117
HPLM + 10% dialyzed FBS, 0.00234 µM	128	140
HPLM + 10% dialyzed FBS, 0.00702 µM	124	120
HPLM + 10% dialyzed FBS, 0.0211 µM	127	119
HPLM + 10% dialyzed FBS, 0.0632 µM	129	142
HPLM + 10% dialyzed FBS, 0.19 µM	127	136
HPLM + 10% dialyzed FBS, 0.569 µM	120	79.9
HPLM + 10% dialyzed FBS, 1.71 µM	35.4	9.33
HPLM + 10% dialyzed FBS, 5.12 µM	8.12	5.66
HPLM + 10% dialyzed FBS, 15.4 µM	5.35	4.28
HPLM + 10% dialyzed FBS, 46.1 µM	4.01	1.69
RPMI 5 mM glucose + 10% dialyzed FBS, 0.000781 µM	–	121
RPMI 5 mM glucose + 10% dialyzed FBS, 0.00234 µM	–	134
RPMI 5 mM glucose + 10% dialyzed FBS, 0.00702 µM	–	121
RPMI 5 mM glucose + 10% dialyzed FBS, 0.0211 µM	–	123
RPMI 5 mM glucose + 10% dialyzed FBS, 0.0632 µM	–	120
RPMI 5 mM glucose + 10% dialyzed FBS, 0.19 µM	–	121
RPMI 5 mM glucose + 10% dialyzed FBS, 0.569 µM	–	80.7
RPMI 5 mM glucose + 10% dialyzed FBS, 1.71 µM	–	8.71
RPMI 5 mM glucose + 10% dialyzed FBS, 5.12 µM	–	5.19
RPMI 5 mM glucose + 10% dialyzed FBS, 15.4 µM	–	3.66
RPMI 5 mM glucose + 10% dialyzed FBS, 46.1 µM	–	1.44

AUC of viability dose-response curve
Conditions	NOMO1 [3]	P12-Ichikawa [5]	SEM cells [4]
HPLM + 10% dialyzed FBS	297	327	299
RPMI 5 mM glucose + 10% FBS	303	313	290
RPMI 5 mM glucose + 10% dialyzed FBS	302	320	299

O=C(NCC[S+](=O)([O-])c1ccc(C(F)(F)F)cn1)c1ccc(Cl)cc1
cell viability [%]
Conditions	NOMO1 [6]	P12-Ichikawa [2]	SEM cells [1]
HPLM + 10% dialyzed FBS, 0.000781 µM	127	115	115
HPLM + 10% dialyzed FBS, 0.00234 µM	117	116	126
HPLM + 10% dialyzed FBS, 0.00702 µM	119	121	107
HPLM + 10% dialyzed FBS, 0.0211 µM	117	115	117
HPLM + 10% dialyzed FBS, 0.0632 µM	119	118	111
HPLM + 10% dialyzed FBS, 0.19 µM	120	117	114
HPLM + 10% dialyzed FBS, 0.569 µM	132	115	103
HPLM + 10% dialyzed FBS, 1.71 µM	117	117	106
HPLM + 10% dialyzed FBS, 5.12 µM	105	110	101
HPLM + 10% dialyzed FBS, 15.4 µM	122	112	104
HPLM + 10% dialyzed FBS, 46.1 µM	106	108	107
RPMI 5 mM glucose + 10% FBS, 0.000781 µM	122	117	94.5
RPMI 5 mM glucose + 10% FBS, 0.00234 µM	144	124	111
RPMI 5 mM glucose + 10% FBS, 0.00702 µM	116	118	89.7
RPMI 5 mM glucose + 10% FBS, 0.0211 µM	134	127	96.7
RPMI 5 mM glucose + 10% FBS, 0.0632 µM	135	117	86.8
RPMI 5 mM glucose + 10% FBS, 0.19 µM	127	115	104
RPMI 5 mM glucose + 10% FBS, 0.569 µM	123	111	99.2
RPMI 5 mM glucose + 10% FBS, 1.71 µM	118	107	81
RPMI 5 mM glucose + 10% FBS, 5.12 µM	130	119	80.6
RPMI 5 mM glucose + 10% FBS, 15.4 µM	128	107	109
RPMI 5 mM glucose + 10% FBS, 46.1 µM	110	109	87.1
RPMI 5 mM glucose + 10% dialyzed FBS, 0.000781 µM	–	112	–
RPMI 5 mM glucose + 10% dialyzed FBS, 0.00234 µM	–	126	–
RPMI 5 mM glucose + 10% dialyzed FBS, 0.00702 µM	–	121	–
RPMI 5 mM glucose + 10% dialyzed FBS, 0.0211 µM	–	121	–
RPMI 5 mM glucose + 10% dialyzed FBS, 0.0632 µM	–	120	–
RPMI 5 mM glucose + 10% dialyzed FBS, 0.19 µM	–	116	–
RPMI 5 mM glucose + 10% dialyzed FBS, 0.569 µM	–	115	–
RPMI 5 mM glucose + 10% dialyzed FBS, 1.71 µM	–	103	–
RPMI 5 mM glucose + 10% dialyzed FBS, 5.12 µM	–	115	–
RPMI 5 mM glucose + 10% dialyzed FBS, 15.4 µM	–	102	–
RPMI 5 mM glucose + 10% dialyzed FBS, 46.1 µM	–	102	–

AUC of viability dose-response curve
Conditions	NOMO1 [3]	P12-Ichikawa [5]	SEM cells [4]
HPLM + 10% dialyzed FBS	457	470	448
RPMI 5 mM glucose + 10% FBS	461	455	450
RPMI 5 mM glucose + 10% dialyzed FBS	463	452	446

COc1ccc(C[C@@H](C)[C@@H](C)Cc2ccc(OC)c(OC)c2)cc1OC
cell viability [%]
Conditions	NOMO1 [6]	P12-Ichikawa [2]	SEM cells [1]
HPLM + 10% dialyzed FBS, 0.000781 µM	92.1	92.6	73.5
HPLM + 10% dialyzed FBS, 0.00234 µM	94.8	105	93.2
HPLM + 10% dialyzed FBS, 0.00702 µM	107	102	85.2
HPLM + 10% dialyzed FBS, 0.0211 µM	112	110	92.7
HPLM + 10% dialyzed FBS, 0.0632 µM	93.5	99.4	96
HPLM + 10% dialyzed FBS, 0.19 µM	75.5	102	94.9
HPLM + 10% dialyzed FBS, 0.569 µM	68	97.7	91.8
HPLM + 10% dialyzed FBS, 1.71 µM	53.7	83	83.2
HPLM + 10% dialyzed FBS, 5.12 µM	16.6	6.15	19
HPLM + 10% dialyzed FBS, 15.4 µM	17.8	5.92	16.3
HPLM + 10% dialyzed FBS, 46.1 µM	13.8	2.61	8.54
RPMI 5 mM glucose + 10% FBS, 0.000781 µM	87.3	97	80.6
RPMI 5 mM glucose + 10% FBS, 0.00234 µM	93.7	103	104
RPMI 5 mM glucose + 10% FBS, 0.00702 µM	88.6	98.3	102
RPMI 5 mM glucose + 10% FBS, 0.0211 µM	100	110	111
RPMI 5 mM glucose + 10% FBS, 0.0632 µM	86.3	111	106
RPMI 5 mM glucose + 10% FBS, 0.19 µM	85.1	99.7	120
RPMI 5 mM glucose + 10% FBS, 0.569 µM	74.9	92.4	93.3
RPMI 5 mM glucose + 10% FBS, 1.71 µM	71.6	81	82.4
RPMI 5 mM glucose + 10% FBS, 5.12 µM	8.17	4.82	18.7
RPMI 5 mM glucose + 10% FBS, 15.4 µM	6.56	4.04	16.7
RPMI 5 mM glucose + 10% FBS, 46.1 µM	5.76	2.42	4.5
RPMI 5 mM glucose + 10% dialyzed FBS, 0.000781 µM	84	95.4	76.3
RPMI 5 mM glucose + 10% dialyzed FBS, 0.00234 µM	80.2	102	97.7
RPMI 5 mM glucose + 10% dialyzed FBS, 0.00702 µM	97.4	105	88.9
RPMI 5 mM glucose + 10% dialyzed FBS, 0.0211 µM	97.6	107	91.7
RPMI 5 mM glucose + 10% dialyzed FBS, 0.0632 µM	95.3	104	88.9
RPMI 5 mM glucose + 10% dialyzed FBS, 0.19 µM	89.6	90.6	83.7
RPMI 5 mM glucose + 10% dialyzed FBS, 0.569 µM	82.4	93.4	81.1
RPMI 5 mM glucose + 10% dialyzed FBS, 1.71 µM	69.2	81.9	74
RPMI 5 mM glucose + 10% dialyzed FBS, 5.12 µM	21.4	6.68	18.3
RPMI 5 mM glucose + 10% dialyzed FBS, 15.4 µM	11.1	4.98	14.9
RPMI 5 mM glucose + 10% dialyzed FBS, 46.1 µM	7.7	2.21	4

AUC of viability dose-response curve
Conditions	NOMO1 [3]	P12-Ichikawa [5]	SEM cells [4]
HPLM + 10% dialyzed FBS	326	355	336
RPMI 5 mM glucose + 10% FBS	315	353	364
RPMI 5 mM glucose + 10% dialyzed FBS	328	354	320
